{
  "source": "patent US7915268B2",
  "about": "“8-substituted 2-(benzimidazolyl)purine derivatives for immunosuppression” (Wyeth LLC, priority 2006, dated 2011)",
  "data": [
    {"target": "T1, Jak3 (Homo sapiens, UniProt P52333)", "T1 construct": "catalytic domain of Jak3 (508aa to 1124aa); made in house; host or cells: Sf9 insect cells (baculovirus, pFastBac 1)", "T1 sequence (P52333 508-1124)": "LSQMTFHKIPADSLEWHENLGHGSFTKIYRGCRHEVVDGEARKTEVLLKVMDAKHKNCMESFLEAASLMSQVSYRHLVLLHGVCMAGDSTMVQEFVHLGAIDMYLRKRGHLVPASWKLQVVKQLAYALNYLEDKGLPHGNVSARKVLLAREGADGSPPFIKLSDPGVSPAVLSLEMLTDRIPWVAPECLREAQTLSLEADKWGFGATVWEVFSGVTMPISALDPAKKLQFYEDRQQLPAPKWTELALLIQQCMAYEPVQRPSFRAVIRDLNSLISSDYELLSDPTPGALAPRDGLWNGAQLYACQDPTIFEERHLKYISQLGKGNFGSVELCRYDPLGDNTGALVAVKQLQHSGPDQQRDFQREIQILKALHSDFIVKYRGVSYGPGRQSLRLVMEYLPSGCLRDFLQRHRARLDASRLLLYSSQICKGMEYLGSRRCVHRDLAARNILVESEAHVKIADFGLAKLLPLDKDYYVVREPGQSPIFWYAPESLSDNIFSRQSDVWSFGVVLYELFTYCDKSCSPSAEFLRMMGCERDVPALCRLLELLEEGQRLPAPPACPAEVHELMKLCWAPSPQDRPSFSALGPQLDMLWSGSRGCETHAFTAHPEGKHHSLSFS", "assay": "Jak3 Kinase Assay (HTRF, GST-Jak3 catalytic domain)", "assay_type": "biochemical", "conditions": "1 μM ATP, 60-min incubation, read-out: Jak 3 (Converted)", "protocol": "Human Jak3 cDNA was amplified by PCR. A fragment encoding the catalytic domain of Jak3 (508aa to 1124aa) was ligated with GST at 5′ end. This fused GST-Jak3 DNA fragment was cloned into the EcoRI site of the donor plasmid pFastBac 1 (Life Technologies #10359-016). The transformation, transposition, and transfection of insect cells (Sf9) were performed according to the manufacture's instructions. The cell lysate containing recombinant GST-Jak3 was used in the kinase assay. Anti-GST antibody (10 μg/ml, Sigma #G1417) was coated onto a 384-well plate at 4° C. overnight. Cell lysate containing GST-Jak3 (1:100 dilution) was added to the anti-GST coated plates, and GST-Jak3 was captured by immobilized anti-GST antibody. Testing compounds and substrate mix (50 mM HEPES, pH 7, 0.5 mM Na3VO4, 25 mM MgCl2, 1 mM DTT, 0.005% BSA, 1 μM ATP, and 4.5 μg/ml biotinyl poly-Glu, Ala, Tyr) were added to the plate to initiate the reaction. After a 60-min incubation, the reaction was stopped by 4 mM EDTA, and phosphorylation of biotinyl poly-Glu, Ala, Tyr was detected using 17 μg/ml Cy5-streptavidin (Amersham, #PA92005) and 2.7 μg/ml Europium-conjugated anti-phosphotyrosine antibody (PerkinElmer #AD0069) using homogeneous time-resolved fluorescence (HTRF) technology.", "units": {"IC50": "nM"}, "values": [
      {"molecule": "Nc1ncc(-c2nc3cnc(-n4cnc5ccc(F)cc54)nc3n2C2CCOCC2)cn1", "note": "[Example 59]", "IC50": "< 100"},
      {"molecule": "Fc1ccc2ncn(-c3ncc4nc(-c5cccc(Cl)c5)n(C5CCOCC5)c4n3)c2c1", "note": "[Example 60]", "IC50": "100 to 1000"},
      {"molecule": "O=c1ccc(-c2nc3cnc(-n4cnc5ccc(F)cc54)nc3n2C2CCOCC2)c[nH]1", "note": "[Example 61]", "IC50": "100 to 1000"},
      {"molecule": "Fc1ccc2ncn(-c3ncc4nc(-c5ccc[nH]5)n(C5CCOCC5)c4n3)c2c1", "note": "[Example 62]", "IC50": "< 100"},
      {"molecule": "COc1ccc(-c2nc3cnc(-n4cnc5ccc(F)cc54)nc3n2C2CCOCC2)cn1", "note": "[Example 63]", "IC50": "< 100"},
      {"molecule": "Fc1ccc2ncn(-c3ncc4nc(-c5ccc(Br)cn5)n(C5CCOCC5)c4n3)c2c1", "note": "[Example 64]", "IC50": "100 to 1000"},
      {"molecule": "Clc1ccc2ncn(-c3ncc4nc(-c5cncnc5)n(C5CCOCC5)c4n3)c2c1", "note": "[Example 65]", "IC50": "< 100"},
      {"molecule": "Fc1ccc2ncn(-c3ncc4nc(-c5ccccn5)n(C5CCOCC5)c4n3)c2c1", "note": "[Example 66]", "IC50": "100 to 1000"},
      {"molecule": "Fc1cccc(-c2nc3cnc(-n4cnc5ccc(F)cc54)nc3n2C2CCOCC2)c1", "note": "[Example 67]", "IC50": "100 to 1000"},
      {"molecule": "Fc1ccc(-c2nc3cnc(-n4cnc5ccc(F)cc54)nc3n2C2CCOCC2)nc1", "note": "[Example 68]", "IC50": "100 to 1000"},
      {"molecule": "Fc1ccc2ncn(-c3ncc4nc(-c5ccncn5)n(C5CCOCC5)c4n3)c2c1", "note": "[Example 69]", "IC50": "< 100"},
      {"molecule": "Fc1ccc2ncn(-c3ncc4nc(-c5ccoc5)n(C5CCOCC5)c4n3)c2c1", "note": "[Example 70]", "IC50": "< 100"},
      {"molecule": "Oc1cccc(-c2nc3cnc(-n4cnc5ccc(F)cc54)nc3n2C2CCOCC2)c1", "note": "[Example 71]", "IC50": "< 100"},
      {"molecule": "Cc1nc2cnc(-n3cnc4ccc(F)cc43)nc2n1C1CCOCC1", "note": "[Example 72]", "IC50": "< 100"},
      {"molecule": "CO[C@H]1CC[C@H](n2c(C)nc3cnc(-n4cnc5ccc(Cl)cc54)nc32)CC1", "note": "[Example 73]", "IC50": "100 to 1000"},
      {"molecule": "Cc1nc2cnc(-n3cnc4ccc(Cl)cc43)nc2n1C1CCOCC1", "note": "[Example 74]", "IC50": "< 100"},
      {"molecule": "Cc1nc2cnc(-n3cnc4ccc(OC(F)(F)F)cc43)nc2n1[C@@H]1CCOc2c(F)cccc21", "note": "[Example 75]", "IC50": "100 to 1000"},
      {"molecule": "Cc1nc2cnc(-n3cnc4ccc(OC(F)(F)F)cc43)nc2n1C1CCOCC1", "note": "[Example 76, 8-Methyl-9-(tetrahydro-2H-pyran-4-yl)-2-(6-(trifluoromethoxy)-1H-benzo[d]imidazol-1-yl)-9H-purine]", "IC50": "< 100"},
      {"molecule": "Fc1ccc2ncn(-c3ncc4c(n3)C([C@@H]3CCOc5ccccc53)C(CCl)=N4)c2c1", "note": "(stereo partly shown) [Example 77]", "IC50": "< 100"},
      {"molecule": "Cc1nc2cnc(-n3cnc4ccc(F)cc43)nc2n1[C@@H]1CCOc2ccccc21", "note": "[Example 78]", "IC50": "< 100"},
      {"molecule": "CCc1nc2cnc(-n3cnc4ccc(F)cc43)nc2n1[C@@H]1CCOc2ccccc21", "note": "[Example 79]", "IC50": "< 100"},
      {"molecule": "Cc1nc2cnc(-n3cnc4ccccc43)nc2n1C1COCc2c(F)cccc21", "note": "(stereo not shown) [Example 80]", "IC50": "100 to 1000"},
      {"molecule": "Cc1nc2cnc(-n3cnc4ccccc43)nc2n1[C@@H]1CCOc2c(F)cccc21", "note": "[Example 81, 2-(1H-benzo[d]imidazol-1-yl)-9-((R)-8-fluorochroman-4-yl)-8-methyl-9H-purine]", "IC50": "< 100"},
      {"molecule": "Cc1nc2cnc(-n3cnc4ccccc43)nc2n1Cc1ccccc1", "note": "[Example 82]", "IC50": "> 1000"},
      {"molecule": "Cc1nc2cnc(-n3cnc4ccccc43)nc2n1C1CCOCC1", "note": "[Example 83]", "IC50": "< 100"},
      {"molecule": "COCCCn1c(C)nc2cnc(-n3cnc4ccccc43)nc21", "note": "[Example 84]", "IC50": "> 1000"},
      {"molecule": "COCCCn1c(-c2ccccc2)nc2cnc(-n3cnc4ccccc43)nc21", "note": "[Example 85]", "IC50": "> 1000"},
      {"molecule": "Fc1cccc2c1COCC2n1c(-c2ccccc2)nc2cnc(-n3cnc4ccccc43)nc21", "note": "(stereo not shown) [Example 86, 2-(1H-benzo[d]imidazol-1-yl)-9-(8-fluoroisochroman-4-yl)-8-phenyl-9H-purine]", "IC50": "> 1000"},
      {"molecule": "Fc1cccc2c1COC[C@H]2n1c(-c2ccccc2)nc2cnc(-n3cnc4ccccc43)nc21", "note": "[Example 87]", "IC50": "100 to 1000"},
      {"molecule": "[O-][n+]1ccc(-c2nc3cnc(-n4cnc5ccc(F)cc54)nc3n2C2CCOCC2)cc1", "note": "[Example 88]", "IC50": "100 to 1000"},
      {"molecule": "c1ccc(Cn2c(-c3ccccc3)nc3cnc(-n4cnc5ccccc54)nc32)cc1", "note": "[Example 89]", "IC50": "> 1000"}
    ]}
  ]
}
